How the values were obtained:
[1] = (§1) Bioavailability in solid organ transplant patient exhibiting […] creatinine clearance infected with cytomegalovirus at 5 mg/kg, iv bid for 5 days followed by 900 mg of oral valganciclovir dosed twice daily for 16 days dose adjustment for renal function by final population pharmacokinetic model; format: ADME, organism-based; conditions: human, in vivo
Homo sapiens [2] = experiment: as §1, with “Drug absorption” for “Bioavailability”, “cytomegalovirus assessed as first-order absorption rate constant” for “cytomegalovirus”, “basal” for “final”; format: ADME, organism-based; set-up: dose 5 mg/kg, route oral; conditions: in vivo
Homo sapiens [3] = experiment: as §1, with “Central volume of distribution” for “Bioavailability”; format: ADME, organism-based; set-up: dose 5 mg/kg, route oral; conditions: in vivo
Homo sapiens [4] = experiment: as §1, with “Intercompartmental clearance between central and peripheral compartments” for “Bioavailability”, “basal” for “final”; format: ADME, organism-based; set-up: dose 5 mg/kg, route oral; conditions: in vivo
Homo sapiens [5] = experiment: as §1, with “Intercompartmental clearance between central and peripheral compartments” for “Bioavailability”; format: ADME, organism-based; set-up: dose 5 mg/kg, route oral; conditions: in vivo
Homo sapiens [6] = experiment: (§2) Clearance in solid organ transplant patient exhibiting […] creatinine clearance infected with cytomegalovirus at 5 mg/kg, iv bid for 5 days followed by 900 mg of oral valganciclovir dosed twice daily for 16 days dose adjustment for renal function by basal population pharmacokinetic model; format: ADME, organism-based; set-up: dose 5 mg/kg, route oral; conditions: in vivo
Homo sapiens [7] = experiment: Drug absorption in solid organ transplant patient exhibiting […] creatinine clearance infected with cytomegalovirus assessed as first-order absorption rate constant at 5 mg/kg, iv bid for 5 days followed by 900 mg of oral valganciclovir dosed twice daily for 16 days dose adjustment for renal function; format: ADME, organism-based; set-up: dose 5 mg/kg, route oral; conditions: in vivo
Homo sapiens [8] = experiment: as §2, with “Central volume of distribution” for “Clearance”; format: ADME, organism-based; set-up: dose 5 mg/kg, route oral; conditions: in vivo
Homo sapiens [9] = experiment: Clearance in solid organ transplant patient exhibiting […] creatinine clearance infected with cytomegalovirus at 5 mg/kg, iv bid for 5 days followed by 900 mg of oral valganciclovir dosed twice daily for 16 days dose adjustment for renal function by final population pharmacokinetic model; format: ADME, organism-based; set-up: dose 5 mg/kg, route oral; conditions: in vivo
[10] = Bioavailability in solid organ transplant patient exhibiting 57 mL/min creatinine clearance infected with cytomegalovirus at 5 mg/kg, iv bid for 5 days followed by 900 mg of oral valganciclovir dosed twice daily for 16 days dose adjustment for renal function by basal population pharmacokinetic model; conditions: human, in vivo

bioavailability [1]: 82.5%
Ka (Homo sapiens [2]): 0.971 h⁻¹
Vd (Homo sapiens [3]): 31.9 L
CL (Homo sapiens [4]): 9.65 L/h
CL (Homo sapiens [5]): 10.2 L/h
CL (Homo sapiens [6]): 6.34 L/h
Ka (Homo sapiens [7]): 0.895 h⁻¹
Vd (Homo sapiens [8]): 32 L
CL (Homo sapiens [9]): 7.49 L/h
bioavailability [10]: 76%
Structure (SMILES): Nc1nc(O)c2ncn(COC(CO)CO)c2n1 [GANCICLOVIR]

From ChEMBL document CHEMBL1671675, “Population pharmacokinetics of ganciclovir after intravenous ganciclovir and oral valganciclovir administration in solid organ transplant patients infected with cytomegalovirus” (Antimicrob Agents Chemother, 2009)
